# Counter-ions that a name gives are not always drawn.
# Experiments:
# ddY male mice = test: Acute toxicity and observation of symptoms; format: in vivo; settings: for abnormal symptoms (dysbasia, areflexia, astasia, blepharoptosis, dyspnea, skin flush, lacrimation, etc.): mouse, in vivo, po; for mortality (acute toxicity): oral, suspension in 0.5% carboxymethyl cellulose, observed for 14 days, dose not given
# aldose reductase = target: T1, aldose reductase (Oryctolagus cuniculus, UniProt P15122); test: Aldose reductase inhibitory activity; format: biochemical; settings: aldose reductase from lens of male rabbit
# T1 construct: Aldose reductase was obtained from lens of male rabbit; from tissue; host or cells: lens of male rabbit (weighing 2.5-3.5 kg)
# Experimental: Aldose reductase was obtained from lens of male rabbit (weighing 2.5-3.5 kg) in the same manner as described in J. Biol. Chem., Vol. 240, 877-882 (1965). The inhibitory activity of the test compounds against the aldose reductase was measured in the same manner as described in Biochim. Biophys. Acta., Vol. 128, 474-482 (1966).
SMILES,IC50 (aldose reductase) [nM],"abnormal symptoms (dysbasia, areflexia, astasia, blepharoptosis, dyspnea, skin flush, lacrimation, etc.) (ddY male mice)",mortality (acute toxicity) (ddY male mice)
"CN1C(=O)Nc2ccc(Cl)cc2C12NC(=O)NC2=O (stereo not shown) [Test Compound 1, 6-Chloro-3-methyl-spiro[1,2,3,4-tetrahydroquinazoline-4,4'-imidazolidine]-2,2',5'-trione]",56,there was not observed any abnormal symptom,no mouse died
"CN1C(=O)Nc2ccc(Cl)cc2C12NC(=O)NC2=O (stereo not drawn) [Test Compound 2, d-6-Chloro-3-methyl-spiro[1,2,3,4-tetrahydroquinazoline-4,4'-imidazolidine]-2,2',5'-trione]",22,there was not observed any abnormal symptom,no mouse died
"CN1C(=O)Nc2ccc(Cl)cc2C12NC(=O)NC2=O (stereo not shown) [Test Compound 3, 6-Chloro-3-methyl-spiro[1,2,3,4-tetrahydroquinazoline-4,4'-imidazolidine]-2,2',5'-trione-1'-sodium salt]",29,,
"CN1C(=O)NC2(C1=O)c1ccccc1NC(=O)N2C (stereo not shown) [Test Compound 11, 3,1'-Dimethyl-spiro[1,2,3,4-tetrahydroquinazoline-4,4'-imidazolidine]-2,2',5'-trione, reference compound]",10000,,
"CN1C(=O)N(C)C2(C1=O)c1ccccc1NC(=O)N2C (stereo not shown) [Test Compound 12, 3,1',3'-Trimethyl-spiro[1,2,3,4-tetrahydroquinazoline-4,4'-imidazolidine]-2,2',5'-trione, reference compound]",> 50000,,

# Second part, led by results:
IC50 (aldose reductase) [nM],SMILES,"abnormal symptoms (dysbasia, areflexia, astasia, blepharoptosis, dyspnea, skin flush, lacrimation, etc.) (ddY male mice)",mortality (acute toxicity) (ddY male mice)
30,"Cc1cc2c(cc1Cl)C1(NC(=O)NC1=O)N(C)C(=O)N2 (stereo not shown) [Test Compound 5, 6-Chloro-3,7-dimethyl-spiro[1,2,3,4-tetrahydroquinazoline-4,4'-imidazolidine]-2,2',5'-trione]",,
52,"CN1C(=O)Nc2ccc(Br)cc2C12NC(=O)NC2=O (stereo not shown) [Test Compound 6, 6-Bromo-3-methyl-spiro[1,2,3,4-tetrahydroquinazoline-4,4'-imidazolidine]-2,2',5'-trione]",,
74,"CN1C(=O)Nc2cc(Cl)c(Cl)cc2C12NC(=O)NC2=O (stereo not shown) [Test Compound 7, 6,7-Dichloro-3-methyl-spiro[1,2,3,4-tetrahydroquinazoline-4,4'-imidazolidine]-2,2',5'-trione]",,
270,"CC(C)CN1C(=O)N(C)C2(NC(=O)NC2=O)c2cc(Cl)ccc21 (stereo not shown) [Test Compound 10, 1-Isobutyl-6-chloro-3-methyl-spiro[1,2,3,4-tetrahydroquinazoline-4,4'-imidazolidine]-2,2',5'-trione]",,

# Reference: US4762839A, “Quinazolinone copmpounds useful for the prophyloxis and treatment of diabetic complications” (priority 1985, dated 1988)
